According to US8952024B2, “Herbicidal pyrimidone derivatives” (E I du Pont de Nemours and Company, priority 2009, dated 2015):

What was measured:
Type in all cases: in vivo
[1] = tested on: large crabgrass (Digitaria sanguinalis); test: Test B pre-/postemergence plant response
Outline: (§1)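 Each species received compound formulated in non-phytotoxic solvent with surfactant, either at planting into a loam and sand blend or as a foliar spray once plants reached 2 to 18 cm in peat-based medium. Plants stayed in the greenhouse 13 to 15 days before visual evaluation against controls, scored 0 (no effect) to 100 (complete control).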

[2] = tested on: morningglory (Ipomoea coccinea); test: Test B pre-/postemergence plant response
Outline: as §1

[3] = tested on: blackgrass (Alopecurus myosuroides); test: Test B pre-/postemergence plant response
Outline: as §1

[4] = tested on: downy bromegrass (Bromus tectorum); test: Test B pre-/postemergence plant response
Outline: as §1

[5] = tested on: Surinam grass (Brachiaria decumbens); test: Test B pre-/postemergence plant response
Outline: as §1

[6] = tested on: yellow nutsedge (Cyperus esculentus); test: Test B pre-/postemergence plant response
Outline: as §1

[7] = tested on: Italian ryegrass (Lolium multiflorum); test: Test B pre-/postemergence plant response
Outline: as §1

[8] = tested on: velvetleaf (Abutilon theophrasti); test: Test B pre-/postemergence plant response
Outline: as §1

[9] = tested on: woolly cupgrass (Eriochloa villosa); test: Test B pre-/postemergence plant response
Outline: as §1

[10] = tested on: goosegrass (Eleusine indica); test: Test B pre-/postemergence plant response
Outline: as §1

[11] = tested on: wheat (Triticum aestivum); test: Test B pre-/postemergence plant response
Outline: as §1

[12] = tested on: pigweed (Amaranthus retroflexus); test: Test A pre-/postemergence plant response
Outline: (§2)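 Formulated test chemicals (non-phytotoxic solvent, surfactant) were sprayed onto soil right after planting and simultaneously onto young plants at one to two leaves, 2 to 10 cm tall. Plants stayed in the greenhouse about ten days; injury was then visually scored against untreated controls, from 0 (no effect) to 100 (complete control).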

[13] = tested on: barnyardgrass (Echinochloa crus-galli); test: Test A pre-/postemergence plant response
Outline: as §2

[14] = 250 g ai/ha, Preemergence, 0 to 100 scale
[15] = Postemergence, 31 g ai/ha, scale 0 to 100 (0 no effect, 100 complete control)
[16] = Postemergence, 62 g ai/ha, scale 0 (no effect) to 100 (complete control), 13 to 15 days
[17] = Postemergence, 125 g ai/ha, visual rating after 13 to 15 days, scale 0 (no effect) to 100 (complete control)
[18] = Postemergence, 250 g ai/ha, scale 0 to 100
[19] = Preemergence, 31 g ai/ha, scale 0 to 100 (0 no effect, 100 complete control)
[20] = Preemergence, 62 g ai/ha, scale 0 to 100, 0 no effect, 100 complete control
[21] = Preemergence, 125 g ai/ha, 0 to 100 scale
[22] = Postemergence, 125 g ai/ha, visual injury, 0 to 100 scale (0 no effect, 100 complete control), approx. ten days
[23] = Postemergence, 500 g ai/ha, 0 to 100 scale, 0 = no effect, 100 = complete control, approx. ten days
[24] = Preemergence, 125 g ai/ha, 0 to 100 scale, 0 = no effect, 100 = complete control
[25] = Preemergence, 500 g ai/ha, visual injury, 0 to 100 scale (0 no effect, 100 complete control), approx. ten days

O=C1CCCC(O)=C1C(=O)c1cnc(-c2ccccc2)n(-c2ccc(F)cc2)c1=O [Compound 24]
Plant response rating, Crabgrass, Large [1, 14]: 100 | Plant response rating, Crabgrass, Large [1, 15]: 70 | Plant response rating, Crabgrass, Large [1, 16]: 75 | Plant response rating, Crabgrass, Large [1, 17]: 95 | Crabgrass, Large plant response rating [1, 18]: 100 | Plant response rating, Crabgrass, Large [1, 19]: 90 | Plant response rating, Crabgrass, Large [1, 20]: 98 | Crabgrass, Large plant response rating [1, 21]: 100 | Plant response rating, Morningglory [2, 14]: 100 | Plant response rating, Morningglory [2, 15]: 50 | Plant response rating, Morningglory [2, 16]: 60 | Plant response rating, Morningglory [2, 17]: 60 | Morningglory plant response rating [2, 18]: 90 | Plant response rating, Morningglory [2, 19]: 100 | Plant response rating, Morningglory [2, 20]: 100 | Morningglory plant response rating [2, 21]: 100 | Plant response rating, Blackgrass [3, 14]: 10 | Plant response rating, Blackgrass [3, 15]: 5 | Plant response rating, Blackgrass [3, 16]: 10 | Plant response rating, Blackgrass [3, 17]: 40 | Blackgrass plant response rating [3, 18]: 50 | Plant response rating, Blackgrass [3, 19]: 0 | Plant response rating, Blackgrass [3, 20]: 0 | Blackgrass plant response rating [3, 21]: 0 | Plant response rating, Bromegrass, Downy [4, 14]: 20 | Plant response rating, Bromegrass, Downy [4, 15]: 25 | Plant response rating, Bromegrass, Downy [4, 16]: 50 | Plant response rating, Bromegrass, Downy [4, 17]: 70 | Bromegrass, Downy plant response rating [4, 18]: 75 | Plant response rating, Bromegrass, Downy [4, 19]: 0 | Plant response rating, Bromegrass, Downy [4, 20]: 0 | Bromegrass, Downy plant response rating [4, 21]: 0 | Plant response rating, Surinam Grass [5, 14]: 100 | Plant response rating, Surinam Grass [5, 15]: 50 | Plant response rating, Surinam Grass [5, 16]: 55 | Plant response rating, Surinam Grass [5, 17]: 60 | Surinam Grass plant response rating [5, 18]: 80 | Plant response rating, Surinam Grass [5, 19]: 65 | Plant response rating, Surinam Grass [5, 20]: 75 | Surinam Grass plant response rating [5, 21]: 95 | Plant response rating, Nutsedge, Yellow [6, 14]: 90 | Plant response rating, Nutsedge, Yellow [6, 15]: 20 | Plant response rating, Nutsedge, Yellow [6, 16]: 30 | Plant response rating, Nutsedge, Yellow [6, 17]: 30 | Nutsedge, Yellow plant response rating [6, 18]: 70 | Plant response rating, Nutsedge, Yellow [6, 19]: 30 | Plant response rating, Nutsedge, Yellow [6, 20]: 50 | Nutsedge, Yellow plant response rating [6, 21]: 85 | Plant response rating, Ryegrass, Italian [7, 14]: 10 | Plant response rating, Ryegrass, Italian [7, 15]: 0 | Plant response rating, Ryegrass, Italian [7, 16]: 5 | Plant response rating, Ryegrass, Italian [7, 17]: 40 | Ryegrass, Italian plant response rating [7, 18]: 50 | Plant response rating, Ryegrass, Italian [7, 19]: 0 | Plant response rating, Ryegrass, Italian [7, 20]: 0 | Ryegrass, Italian plant response rating [7, 21]: 10 | Plant response rating, Velvetleaf [8, 14]: 100 | Plant response rating, Velvetleaf [8, 15]: 75 | Plant response rating, Velvetleaf [8, 16]: 90 | Plant response rating, Velvetleaf [8, 17]: 98 | Velvetleaf plant response rating [8, 18]: 98 | Plant response rating, Velvetleaf [8, 19]: 98 | Plant response rating, Velvetleaf [8, 20]: 100 | Velvetleaf plant response rating [8, 21]: 100 | Plant response rating, Cupgrass, Woolly [9, 14]: 90 | Plant response rating, Cupgrass, Woolly [9, 15]: 80 | Plant response rating, Cupgrass, Woolly [9, 16]: 80 | Plant response rating, Cupgrass, Woolly [9, 17]: 95 | Cupgrass, Woolly plant response rating [9, 18]: 95 | Plant response rating, Cupgrass, Woolly [9, 19]: 5 | Plant response rating, Cupgrass, Woolly [9, 20]: 70 | Cupgrass, Woolly plant response rating [9, 21]: 85 | Plant response rating, Goosegrass [10, 14]: 100 | Plant response rating, Goosegrass [10, 15]: 85 | Plant response rating, Goosegrass [10, 16]: 85 | Plant response rating, Goosegrass [10, 17]: 85 | Goosegrass plant response rating [10, 18]: 98 | Plant response rating, Goosegrass [10, 19]: 85 | Goosegrass plant response rating [10, 21]: 100 | Plant response rating, Wheat [11, 14]: 0 | Plant response rating, Wheat [11, 15]: 5 | Plant response rating, Wheat [11, 16]: 10 | Plant response rating, Wheat [11, 17]: 30 | Wheat plant response rating [11, 18]: 50 | Plant response rating, Wheat [11, 19]: 0 | Plant response rating, Wheat [11, 20]: 0 | Wheat plant response rating [11, 21]: 0 | Pigweed plant response rating [12, 22]: 90 | Plant response rating, Pigweed [12, 23]: 100 | Plant response rating, Pigweed [12, 24]: 90 | Plant response rating, Pigweed [12, 25]: 100 | Barnyardgrass plant response rating [13, 22]: 10 | Plant response rating, Barnyardgrass [13, 23]: 70 | Plant response rating, Barnyardgrass [13, 24]: 10 | Plant response rating, Barnyardgrass [13, 25]: 90
